These results are taken from patent publication US11365203B2, “Fluorescent dye and preparation method and use thereof” (Fluorescence Diagnosis (shanghai) Biotech Company Ltd., priority 2016, dated 2022).

A short description of this data set: Fluorescence emission spectra of molecular rotors in glycerin and methanol. Type of data set: physicochemical. The note with it: for Maximum Emission Wavelength: 1×10^−5 M in glycerin and methanol, excited at maximum excitation wavelength of each dye; for Fluorescence Intensity Ratios in Glycerol/Methanol: 1×10^−5 M, glycerol vs methanol solution. How it is done: The fluorescent dyes (molecular rotors) prepared in Examples 1-68 were separately dissolved in dimethyl sulfoxide to prepare respectively a mother liquor having a concentration of 1×10^−2 M, and each of the mother liquors was added individually to glycerin and methanol, and mixed uniformly, thereby solutions of a final concentration of 1×10^−5 M were prepared individually. According to the different fluorescent dyes, the fluorescence emission spectra of the fluorescent dyes were detected with the maximum excitation wavelengths of respective fluorescent dyes successively under the same conditions.

As for `CN(C)c1cc2cc3sc(C=C(C#N)C#N)cc3cc2s1` [Molecular Rotor 41], the “Maximum Emission Wavelength” value worked out at 558 nm and the “Fluorescence Intensity Ratios in Glycerol/Methanol” value is on record as 875.

`CN(CCO)c1cc2c(s1)-c1sc(/C=C(\C#N)c3nc4ccccc4s3)cc1[Si]21CCC1` [Molecular Rotor 62]: the “Maximum Emission Wavelength” value was 715 nm and the “Fluorescence Intensity Ratios in Glycerol/Methanol” value is on record as 759.

As for `CCCCN(CCO)c1ccc2cc(/C=C3N=C(/C=C/c4ccccc4)N(C)C/3=O)sc2c1` [Molecular Rotor 28], the “Maximum Emission Wavelength” value came out at 650 nm and the “Fluorescence Intensity Ratios in Glycerol/Methanol” value is listed as 569.

`CN1C(=O)/C(=C\c2cc3ccc(N(C)CCOCCC(=O)O)cc3s2)N=C1c1ccccc1` [Molecular Rotor 26]: the “Maximum Emission Wavelength” value came to 610 nm and the “Fluorescence Intensity Ratios in Glycerol/Methanol” value was 712.

`CC1(C)OC(=O)C(C#N)=C1c1cc2sc(O)cc2s1` [Molecular Rotor 10]: the “Maximum Emission Wavelength” value is reported as 520 nm and the “Fluorescence Intensity Ratios in Glycerol/Methanol” value is recorded as 851.

Consider `CN(CCO)c1ccc2cc(/C=C(\C#N)c3nc4ccccc4o3)sc2c1` [Molecular Rotor 23], for which the “Maximum Emission Wavelength” value is 608 nm and the “Fluorescence Intensity Ratios in Glycerol/Methanol” value is listed as 568.

Regarding `CN(C)c1cc2c(s1)-c1sc(/C=C(\C#N)c3nc4ccccc4o3)cc1C2(C)C` [Molecular Rotor 66], the “Maximum Emission Wavelength” value worked out at 670 nm and the “Fluorescence Intensity Ratios in Glycerol/Methanol” value is 623.

Turning to `CCCCN(CCO)c1ccc2c(c1)sc1cc(/C=C3/N=C(c4ccccc4)N(C)C3=O)sc12` [Molecular Rotor 40], the “Maximum Emission Wavelength” value turned out to be 659 nm and the “Fluorescence Intensity Ratios in Glycerol/Methanol” value amounted to 652.

`CN(CCO)c1ccc2c(c1)sc1cc(/C=C(\C#N)C(=O)OC(C)(C)C)sc12` [Molecular Rotor 35]: the “Maximum Emission Wavelength” value worked out at 626 nm and the “Fluorescence Intensity Ratios in Glycerol/Methanol” value worked out at 476.

With `COCCOCCOCCOCCOCCOCCOCCOCCOCCOCCOCCOCCOCCOCCOCCNc1cc2sc3cc(/C=C4\N=C(C)N(C)C4=O)sc3c2s1` [Molecular Rotor 18], the “Maximum Emission Wavelength” value is on record as 630 nm and the “Fluorescence Intensity Ratios in Glycerol/Methanol” value is 678.

As for `CCCCCCCCCCN(CCCCCCCCCC)c1ccc2cc(C=C(C#N)C#N)sc2c1` [Molecular Rotor 25], the “Maximum Emission Wavelength” value is 570 nm and the “Fluorescence Intensity Ratios in Glycerol/Methanol” value was determined as 615.

Regarding “6-[2-cyano-2-(2-phenylpropionazole)-vinyl]-2-dimethylamino-thieno[3,2-B:2′,3′-D]thiophene [Molecular Rotor 12]”, the “Maximum Emission Wavelength” value is 655 nm and the “Fluorescence Intensity Ratios in Glycerol/Methanol” value is 655.

`COC(=O)/C(C#N)=C/c1cc2sc3cc(N(CC(=O)O)CC(=O)O)sc3c2s1` [Molecular Rotor 17]: the “Maximum Emission Wavelength” value is 618 nm and the “Fluorescence Intensity Ratios in Glycerol/Methanol” value was 888.

As to `CN(C)c1cc2sc3cc(C=C(C#N)C#N)sc3c2s1` [Molecular Rotor 14], the “Maximum Emission Wavelength” value turned out to be 620 nm and the “Fluorescence Intensity Ratios in Glycerol/Methanol” value turned out to be 681.

With `CN(CCC#N)c1ccc2c(c1)sc1cc(/C=C(\C#N)c3nc4ccccc4s3)sc12` [Molecular Rotor 39], the “Maximum Emission Wavelength” value is 667 nm and the “Fluorescence Intensity Ratios in Glycerol/Methanol” value is reported as 541.

For the compound `CN(CCC#N)c1cc2cc3cc(/C=C(\C#N)c4nc5ccccc5s4)sc3cc2s1` [Molecular Rotor 53], the “Maximum Emission Wavelength” value is 599 nm and the “Fluorescence Intensity Ratios in Glycerol/Methanol” value is given as 915.

With `CN(CC(O)C(O)C(O)C(O)CO)c1cc2sc3cc(/C=C(\C#N)C(=O)O)sc3c2s1` (stereo not shown) [Molecular Rotor 16], the “Maximum Emission Wavelength” value was 620 nm and the “Fluorescence Intensity Ratios in Glycerol/Methanol” value is listed as 951.

Take `COCCOCCOCCOCCOCCN(C)c1cc2cc3sc(/C=C4/N=C(C)N(C)C4=O)cc3cc2s1` [Molecular Rotor 45]: the “Maximum Emission Wavelength” value was determined as 585 nm and the “Fluorescence Intensity Ratios in Glycerol/Methanol” value is on record as 812.

For the compound `COc1c(/C=C(\C#N)C(=O)O)sc2c(OC)c(N(C)C)sc12` [Molecular Rotor 33], the “Maximum Emission Wavelength” value amounted to 565 nm and the “Fluorescence Intensity Ratios in Glycerol/Methanol” value is reported as 531.

With `N#C/C(=C\c1cc2ccc(N(CCO)CCO)cc2s1)c1nc2ccccc2s1` [Molecular Rotor 24], the “Maximum Emission Wavelength” value is given as 608 nm and the “Fluorescence Intensity Ratios in Glycerol/Methanol” value came out at 912.

On to `CN(CCO)c1cc2cc3cc(C=C(C#N)C#N)sc3cc2s1` [Molecular Rotor 48], for which the “Maximum Emission Wavelength” value was found to be 562 nm and the “Fluorescence Intensity Ratios in Glycerol/Methanol” value is given as 608.

As for `CN(CCO)c1cc2c(s1)-c1sc(/C=C(\C#N)C(=O)O)cc1C2(C)C` [Molecular Rotor 68], the “Maximum Emission Wavelength” value was 648 nm and the “Fluorescence Intensity Ratios in Glycerol/Methanol” value amounted to 953.

For `CN(CCOCCCS(=O)(=O)O)c1cc2sc(C=C(C#N)C#N)cc2s1` [Molecular Rotor 4, 6-(2,2-dicyano-vinyl)-2-[N-methyl-N-(3-sulfonic acid propyloxyethyl)]-thieno[3,2,b]thiophene], the “Maximum Emission Wavelength” value is listed as 557 nm and the “Fluorescence Intensity Ratios in Glycerol/Methanol” value worked out at 892.

Take `CNc1ccc2c(c1)sc1cc(/C=C(\C#N)C(=O)O)sc12` [Molecular Rotor 37]: the “Maximum Emission Wavelength” value came to 627 nm and the “Fluorescence Intensity Ratios in Glycerol/Methanol” value worked out at 879.

As for `COCCNC(=O)/C(C#N)=C/c1cc2sc3cc(N4CCCC4)sc3c2s1` [Molecular Rotor 15], the “Maximum Emission Wavelength” value was determined as 620 nm and the “Fluorescence Intensity Ratios in Glycerol/Methanol” value is listed as 799.

For the compound `C[Si]1(C)c2cc(/C=C(\C#N)C(=O)O)sc2-c2sc(N(CCO)CCO)cc21` [Molecular Rotor 58], the “Maximum Emission Wavelength” value is given as 656 nm and the “Fluorescence Intensity Ratios in Glycerol/Methanol” value was 683.

Regarding `CNc1cc2cc3sc(/C=C(\C#N)c4nc5ccccc5s4)cc3cc2s1` [Molecular Rotor 44], the “Maximum Emission Wavelength” value is reported as 603 nm and the “Fluorescence Intensity Ratios in Glycerol/Methanol” value is 631.

As to `CN(C)c1cc2c(s1)-c1sc(/C=C(\C#N)C(=O)OC(C)(C)C)cc1C2(C)C` [Molecular Rotor 65], the “Maximum Emission Wavelength” value was determined as 645 nm and the “Fluorescence Intensity Ratios in Glycerol/Methanol” value is recorded as 591.

Consider `COCCOCCOCCOCCOCCN(C)c1ccc2cc(/C=C(\C#N)C(=O)O)sc2c1` [Molecular Rotor 29], for which the “Maximum Emission Wavelength” value is 570 nm and the “Fluorescence Intensity Ratios in Glycerol/Methanol” value is reported as 515.

`CCOC(=O)/C(C#N)=C/c1cc2sc3cc(N4CCOCC4)sc3c2s1` [Molecular Rotor 21]: the “Maximum Emission Wavelength” value turned out to be 620 nm and the “Fluorescence Intensity Ratios in Glycerol/Methanol” value is given as 544.

`CN(CCC#N)c1cc2c(s1)-c1sc(/C=C(\C#N)c3nc4ccccc4o3)cc1[Si]21CCC1` [Molecular Rotor 61]: the “Maximum Emission Wavelength” value is recorded as 691 nm and the “Fluorescence Intensity Ratios in Glycerol/Methanol” value was determined as 816.

For `CN(CCOCCCS(=O)(=O)O)c1cc2cc3cc(/C=C(\C#N)C(=O)OC(C)(C)C)sc3cc2s1` [Molecular Rotor 49], the “Maximum Emission Wavelength” value was determined as 559 nm and the “Fluorescence Intensity Ratios in Glycerol/Methanol” value worked out at 612.

As for `COc1c(/C=C(\C#N)C(=O)OC(C)(C)C)sc2c(OC)c(N(C)C)sc12` [Molecular Rotor 32], the “Maximum Emission Wavelength” value turned out to be 570 nm and the “Fluorescence Intensity Ratios in Glycerol/Methanol” value was 612.

`COC(=O)/C(C#N)=C/c1cc2ccc(O)cc2s1` [Molecular Rotor 31]: the “Maximum Emission Wavelength” value turned out to be 535 nm and the “Fluorescence Intensity Ratios in Glycerol/Methanol” value is 572.

With `CNc1cc2cc3cc(/C=C4/N=C(c5ccccc5)N(C)C4=O)sc3cc2s1` [Molecular Rotor 51], the “Maximum Emission Wavelength” value is recorded as 599 nm and the “Fluorescence Intensity Ratios in Glycerol/Methanol” value is given as 535.

As for `COCCNC(=O)/C(C#N)=C/c1cc2cc3sc(N4CCCC4)cc3cc2s1` [Molecular Rotor 46], the “Maximum Emission Wavelength” value turned out to be 563 nm and the “Fluorescence Intensity Ratios in Glycerol/Methanol” value turned out to be 712.

Regarding `CNc1cc2c(s1)-c1sc(/C=C(\C#N)C(=O)OC(C)(C)C)cc1[Si]21CCC1` [Molecular Rotor 60], the “Maximum Emission Wavelength” value was 637 nm and the “Fluorescence Intensity Ratios in Glycerol/Methanol” value worked out at 812.

In the case of `COCCNC(=O)/C(C#N)=C/c1cc2ccc(OC)cc2s1` [Molecular Rotor 30], the “Maximum Emission Wavelength” value came to 520 nm and the “Fluorescence Intensity Ratios in Glycerol/Methanol” value was found to be 513.

Take `CN(C)c1cc2c(s1)-c1sc(C=C(C#N)C#N)cc1[Si]2(C)C` [Molecular Rotor 56]: the “Maximum Emission Wavelength” value was 655 nm and the “Fluorescence Intensity Ratios in Glycerol/Methanol” value is reported as 591.

With `CN1C(=O)/C(=C/c2cc3sc4cc(N(CCO)CCO)sc4c3s2)N=C1c1ccccc1` [Molecular Rotor 19], the “Maximum Emission Wavelength” value is reported as 650 nm and the “Fluorescence Intensity Ratios in Glycerol/Methanol” value is recorded as 791.

Regarding `COCCOCCOCCOCCOCCN(C)c1cc2cc3cc(/C=C(\C#N)c4nc5ccccc5o4)sc3cc2s1` [Molecular Rotor 52], the “Maximum Emission Wavelength” value came out at 578 nm and the “Fluorescence Intensity Ratios in Glycerol/Methanol” value worked out at 680.

For `COCCNC(=O)/C(C#N)=C/c1cc2sc3cc(N(CCO)CCO)ccc3c2s1` [Molecular Rotor 36], the “Maximum Emission Wavelength” value is 628 nm and the “Fluorescence Intensity Ratios in Glycerol/Methanol” value is 901.

Turning to `COCCOCCOCCOCCOCCN(C)c1cc2sc(/C=C3\N=C(C)N(C)C3=O)cc2s1` [Molecular Rotor 6], the “Maximum Emission Wavelength” value came out at 585 nm and the “Fluorescence Intensity Ratios in Glycerol/Methanol” value was 1453.

Turning to `CN(C)c1ccc2c(c1)sc1cc(C=C(C#N)C#N)sc12` [Molecular Rotor 34], the “Maximum Emission Wavelength” value was found to be 626 nm and the “Fluorescence Intensity Ratios in Glycerol/Methanol” value is 1012.
